Reference: paper PMC5218480 (PLoS ONE, 2017)

Tested on: MV-4-11 cells
Experiment: Gene expression microarray analysis (Affymetrix PrimeView) and GSEA
Assay type: cell-based, human
Set-up: RFU PODN (11730768_x_at) / Fold change /veh PODN (11730768_x_at) / RFU LINC00158 (11744669_a_at) / Fold change /veh LINC00158 (11744669_a_at) / RFU DUSP10 (11751237_a_at) / Fold change /veh DUSP10 (11751237_a_at) / RFU ID3 (11757404_x_at) / Fold change /veh ID3 (11757404_x_at) / RFU PLEKHG5 (11737974_s_at) / Fold change /veh PLEKHG5 (11737974_s_at) / RFU LRRC4B (11730491_at) / Fold change /veh LRRC4B (11730491_at) / RFU GIMAP4 (11747438_a_at) / Fold change /veh GIMAP4 (11747438_a_at) / RFU KRT8 (11758183_x_at) / Fold change /veh KRT8 (11758183_x_at) / RFU CNN1 (11734310_a_at) / Fold change /veh CNN1 (11734310_a_at) / RFU VPS37D (11726825_at) / Fold change /veh VPS37D (11726825_at) / RFU C10orf10 (11716522_x_at) / Fold change /veh C10orf10 (11716522_x_at) / RFU KIR2DL2 /// KIR2DL4 /// KIR2DL5A /// KIR2DL5B /// KIR2DS1 /// KIR2DS2 /// KIR2DS3 /// KIR2DS4 /// KIR3DL3 /// KIR3DL3 /// KIR3DS1 (11738374_at) / Fold change /veh KIR2DL2 /// KIR2DL4 /// KIR2DL5A /// KIR2DL5B /// KIR2DS1 /// KIR2DS2 /// KIR2DS3 /// KIR2DS4 /// KIR3DL3 /// KIR3DL3 /// KIR3DS1 (11738374_at) / RFU C1QL1 (11718748_at) / Fold change /veh C1QL1 (11718748_at) / RFU TMPRSS4 (11747572_a_at) / Fold change /veh TMPRSS4 (11747572_a_at) / RFU HAMP (11756126_x_at) / Fold change /veh HAMP (11756126_x_at) / RFU RNFT2 (11725882_a_at) / Fold change /veh RNFT2 (11725882_a_at) / RFU NR4A2 (11747474_a_at) / Fold change /veh NR4A2 (11747474_a_at) / RFU ABCC12 (11746883_a_at) / Fold change /veh ABCC12 (11746883_a_at) / RFU TMEM136 (11760407_x_at) / Fold change /veh TMEM136 (11760407_x_at) / RFU CLDN22 /// WWC2 (11732394_at) / Fold change /veh CLDN22 /// WWC2 (11732394_at) / RFU HLA-DPB1 (11760878_x_at) / Fold change /veh HLA-DPB1 (11760878_x_at) / RFU SPINT1 (11716480_a_at) / Fold change /veh SPINT1 (11716480_a_at) / RFU GAP43 (11754022_s_at) / Fold change /veh GAP43 (11754022_s_at) / RFU A4GNT (11735810_at) / Fold change /veh A4GNT (11735810_at) / RFU PRB3 (11715151_x_at) / Fold change /veh PRB3 (11715151_x_at) / RFU TUBB4B (11761932_at) / Fold change /veh TUBB4B (11761932_at) / RFU CAPN14 (11732068_a_at) / Fold change /veh CAPN14 (11732068_a_at) / RFU TMCC2 (11721928_a_at) / Fold change /veh TMCC2 (11721928_a_at) / RFU IRGQ (11745062_a_at) / Fold change /veh IRGQ (11745062_a_at) / RFU FAM174B (11720279_a_at) / Fold change /veh FAM174B (11720279_a_at) / RFU TMPRSS4 (11748680_a_at) / Fold change /veh TMPRSS4 (11748680_a_at) / RFU FAM212B (11763350_a_at) / Fold change /veh FAM212B (11763350_a_at) / RFU PLEKHG5 (11743358_a_at) / Fold change /veh PLEKHG5 (11743358_a_at) / RFU ZSCAN30 (11745921_a_at) / Fold change /veh ZSCAN30 (11745921_a_at) / RFU CMKLR1 (11741424_a_at) / Fold change /veh CMKLR1 (11741424_a_at) / RFU LOC101060620 /// MAPK8IP1 (11723275_at) / Fold change /veh LOC101060620 /// MAPK8IP1 (11723275_at) / RFU SPTSSB (11747773_x_at) / Fold change /veh SPTSSB (11747773_x_at) / RFU PRSS12 (11739890_at) / Fold change /veh PRSS12 (11739890_at) / RFU BIN1 (11741810_x_at) / Fold change /veh BIN1 (11741810_x_at) / RFU WNT11 (11732464_a_at) / Fold change /veh WNT11 (11732464_a_at) / RFU C10orf10 (11716521_a_at) / Fold change /veh C10orf10 (11716521_a_at) / RFU C5orf56 (11738089_at) / Fold change /veh C5orf56 (11738089_at) / RFU CYB561 (11721691_x_at) / Fold change /veh CYB561 (11721691_x_at) / RFU ANKRD19P (11752326_a_at) / Fold change /veh ANKRD19P (11752326_a_at) / RFU OR2T12 /// OR2T33 /// OR2T8 (11738714_s_at) / Fold change /veh OR2T12 /// OR2T33 /// OR2T8 (11738714_s_at) / RFU VCAN (11748164_a_at) / Fold change /veh VCAN (11748164_a_at) / RFU JSRP1 (11732532_at) / Fold change /veh JSRP1 (11732532_at) / RFU KRTAP10-11 (11738290_x_at) / Fold change /veh KRTAP10-11 (11738290_x_at) / RFU MYO3A (11730013_a_at) / Fold change /veh MYO3A (11730013_a_at) / RFU EBF3 (11725865_a_at) / Fold change /veh EBF3 (11725865_a_at) / RFU CAMK2N1 (11719241_x_at) / Fold change /veh CAMK2N1 (11719241_x_at) / RFU C5orf56 (11738088_a_at) / Fold change /veh C5orf56 (11738088_a_at) / RFU OLFML3 (11715873_a_at) / Fold change /veh OLFML3 (11715873_a_at) / RFU LOC100653217 /// NTM (11731650_a_at) / Fold change /veh LOC100653217 /// NTM (11731650_a_at) / RFU MAPK11 (11762145_a_at) / Fold change /veh MAPK11 (11762145_a_at) / RFU FIZ1 (11724087_x_at) / Fold change /veh FIZ1 (11724087_x_at) / RFU OASL (11726364_x_at) / Fold change /veh OASL (11726364_x_at) / RFU SOX15 (11748057_x_at) / Fold change /veh SOX15 (11748057_x_at) / RFU CD79A (11719716_a_at) / Fold change /veh CD79A (11719716_a_at) / RFU HIST1H1D (11736915_at) / Fold change /veh HIST1H1D (11736915_at) / RFU CASKIN2 (11723855_a_at) / Fold change /veh CASKIN2 (11723855_a_at) / RFU LOC730098 (11760151_x_at) / Fold change /veh LOC730098 (11760151_x_at) / RFU OR4N2 (11742367_at) / Fold change /veh OR4N2 (11742367_at) / RFU PRRT2 (11749266_a_at) / Fold change /veh PRRT2 (11749266_a_at) / RFU SNX32 (11753110_a_at) / Fold change /veh SNX32 (11753110_a_at) / RFU CDHR5 (11726645_a_at) / Fold change /veh CDHR5 (11726645_a_at) / RFU RCAN1 (11760418_a_at) / Fold change /veh RCAN1 (11760418_a_at) / RFU FAM167A (11723789_a_at) / Fold change /veh FAM167A (11723789_a_at) / RFU FAM26E (11764081_at) / Fold change /veh FAM26E (11764081_at) / RFU ISYNA1 (11749810_s_at) / Fold change /veh ISYNA1 (11749810_s_at) / RFU ACY1 (11761880_at) / Fold change /veh ACY1 (11761880_at) / RFU 11764098_at / Fold change /veh 11764098_at / RFU SAMD14 (11745864_x_at) / Fold change /veh SAMD14 (11745864_x_at) / RFU NPB (11741838_a_at) / Fold change /veh NPB (11741838_a_at) / RFU TMPRSS6 (11731388_a_at) / Fold change /veh TMPRSS6 (11731388_a_at) / RFU KRTAP10-2 (11738614_at) / Fold change /veh KRTAP10-2 (11738614_at) / RFU ARHGAP8 /// PRR5-ARHGAP8 (11727945_x_at) / Fold change /veh ARHGAP8 /// PRR5-ARHGAP8 (11727945_x_at) / RFU KRTAP5-7 /// NADSYN1 (11734609_at) / Fold change /veh KRTAP5-7 /// NADSYN1 (11734609_at) / RFU RASL12 (11751679_a_at) / Fold change /veh RASL12 (11751679_a_at) / RFU CDKN2B (11736163_a_at) / Fold change /veh CDKN2B (11736163_a_at) / RFU PRF1 (11729649_at) / Fold change /veh PRF1 (11729649_at) / RFU, ZNF638 /// ZNF638-IT1 / Fold change vs veh, ZNF638 /// ZNF638-IT1 / RFU, PANK3 / Fold change vs veh, PANK3 / RFU, SH3YL1 / Fold change vs veh, SH3YL1 / RFU, ZEB2 / Fold change vs veh, ZEB2 / RFU, NRIP1 / Fold change vs veh, NRIP1 / RFU, PTTG1IP / Fold change vs veh, PTTG1IP / RFU, CAPN2 / Fold change vs veh, CAPN2 / RFU, MED14 / Fold change vs veh, MED14 / RFU, SNORA58 / Fold change vs veh, SNORA58 / RFU, C1orf63 / Fold change vs veh, C1orf63 / RFU, LRRFIP1 / Fold change vs veh, LRRFIP1 / RFU, NDUFAF7 / Fold change vs veh, NDUFAF7 / RFU, SLC12A2 / Fold change vs veh, SLC12A2 / RFU, IBTK / Fold change vs veh, IBTK / RFU, ESF1 / Fold change vs veh, ESF1 / Fold change vs veh, TMEM50B / RFU, TAOK1 / Fold change vs veh, TAOK1 / RFU, ACBD3 / Fold change vs veh, ACBD3 / RFU, TMA16 / Fold change vs veh, TMA16 / RFU, RWDD3 / Fold change vs veh, RWDD3 / RFU, BCAT1 / Fold change vs veh, BCAT1 / RFU, EDEM3 / Fold change vs veh, EDEM3 / RFU, TMEM33 / Fold change vs veh, TMEM33 / RFU, WDR75 / Fold change vs veh, WDR75 / RFU, AHCTF1 / Fold change vs veh, AHCTF1 / RFU, TFRC / Fold change vs veh, TFRC / RFU, ZDHHC17 / Fold change vs veh, ZDHHC17 / RFU, NOM1 / Fold change vs veh, NOM1 / RFU, ARL8B / Fold change vs veh, ARL8B / RFU, ZBTB11 / Fold change vs veh, ZBTB11 / RFU, TAMM41 / Fold change vs veh, TAMM41 / RFU, KIAA1704 /// LOC100996395 / Fold change vs veh, KIAA1704 /// LOC100996395 / RFU, ING1 / Fold change vs veh, ING1 / RFU, TRMT61B / Fold change vs veh, TRMT61B / RFU, FUBP3 / Fold change vs veh, FUBP3 / RFU, TP53 / Fold change vs veh, TP53 / RFU, TNKS2 / Fold change vs veh, TNKS2 / RFU, ZFP14 / Fold change vs veh, ZFP14 / RFU, ACTR2 / Fold change vs veh, ACTR2 / RFU, PPP3R1 / Fold change vs veh, PPP3R1 / RFU, PIK3R1 / Fold change vs veh, PIK3R1 / RFU, HNRNPA1 / Fold change vs veh, HNRNPA1 / RFU, RNF170 / Fold change vs veh, RNF170 / RFU, ZNF28 / Fold change vs veh, ZNF28 / RFU, RNGTT / Fold change vs veh, RNGTT / RFU, OGT / Fold change vs veh, OGT / RFU, BRD1 / Fold change vs veh, BRD1 / RFU, MARS / Fold change vs veh, MARS / RFU, ZNF655 / Fold change vs veh, ZNF655 / RFU, FAHD1 / Fold change vs veh, FAHD1 / RFU, BDP1 / Fold change vs veh, BDP1 / RFU, LRRCC1 / Fold change vs veh, LRRCC1 / RFU, ARID1A / Fold change vs veh, ARID1A / RFU, ZNF146 / Fold change vs veh, ZNF146 / RFU, ZNF330 / Fold change vs veh, ZNF330 / RFU, GPN3 / Fold change vs veh, GPN3 / RFU, C9orf123 / Fold change vs veh, C9orf123 / RFU, N4BP2L2 / Fold change vs veh, N4BP2L2 / RFU, ARFIP1 / Fold change vs veh, ARFIP1 / RFU, FAM179B / Fold change vs veh, FAM179B / RFU, BCL10 / Fold change vs veh, BCL10 / RFU, UHRF1BP1L / Fold change vs veh, UHRF1BP1L / RFU, BET1 / Fold change vs veh, BET1 / RFU, CNOT2 / Fold change vs veh, CNOT2 / RFU, ZNF268 / Fold change vs veh, ZNF268 / Fold change vs veh, ZNF507 / RFU, DGCR2 / Fold change vs veh, DGCR2 / RFU, WDSUB1 / Fold change vs veh, WDSUB1 / Fold change vs veh, HSP90B1 /// MIR3652 / RFU, ADSS / Fold change vs veh, ADSS / RFU, GK / Fold change vs veh, GK / RFU, ZNF148 / Fold change vs veh, ZNF148 / RFU, TAF9 / Fold change vs veh, TAF9 / RFU, SLC1A5 / Fold change vs veh, SLC1A5 / RFU, SLMO2 / Fold change vs veh, SLMO2 / RFU, ABCC4 / Fold change vs veh, ABCC4 / RFU, LOC101060439 /// RAP1B / Fold change vs veh, LOC101060439 /// RAP1B / RFU, RFX7 / Fold change vs veh, RFX7 / RFU, GTPBP10 / Fold change vs veh, GTPBP10 / RFU, CNEP1R1 / Fold change vs veh, CNEP1R1 / RFU, BIVM-ERCC5 /// ERCC5 / Fold change vs veh, BIVM-ERCC5 /// ERCC5 / RFU, ILF3 / Fold change vs veh, ILF3 / RFU 11762660_at / Fold change /veh 11762660_at / RFU VCAN (11757783_s_at) / Fold change /veh VCAN (11757783_s_at) / RFU DDX43 (11728927_at) / Fold change /veh DDX43 (11728927_at) / RFU KRT8 (11758188_x_at) / Fold change /veh KRT8 (11758188_x_at) / RFU NKD1 (11759106_at) / Fold change /veh NKD1 (11759106_at) / RFU SRD5A1 (11742802_a_at) / Fold change /veh SRD5A1 (11742802_a_at) / RFU TPSAB1 /// TPSB2 (11721975_s_at) / Fold change /veh TPSAB1 /// TPSB2 (11721975_s_at) / RFU GSTM3 (11746129_a_at) / Fold change /veh GSTM3 (11746129_a_at) / RFU IL23R (11737362_x_at) / Fold change /veh IL23R (11737362_x_at) / RFU TMEM51 (11727254_a_at) / Fold change /veh TMEM51 (11727254_a_at) / RFU PIWIL2 (11732686_x_at) / Fold change /veh PIWIL2 (11732686_x_at) / RFU ORM1 (11744905_x_at) / Fold change /veh ORM1 (11744905_x_at) / RFU CCDC152 (11743942_at) / Fold change /veh CCDC152 (11743942_at) / RFU ECM1 (11717891_a_at) / Fold change /veh ECM1 (11717891_a_at) / RFU IL23R (11748794_a_at) / Fold change /veh IL23R (11748794_a_at) / RFU TNFAIP8L3 (11732012_x_at) / Fold change /veh TNFAIP8L3 (11732012_x_at) / RFU MBOAT4 (11741988_at) / Fold change /veh MBOAT4 (11741988_at) / RFU 11764193_at / Fold change /veh 11764193_at / RFU TMEM53 (11763286_at) / Fold change /veh TMEM53 (11763286_at) / RFU MAGEB2 (11727129_at) / Fold change /veh MAGEB2 (11727129_at) / RFU TMEM200A (11744735_a_at) / Fold change /veh TMEM200A (11744735_a_at) / RFU CCDC152 (11751479_a_at) / Fold change /veh CCDC152 (11751479_a_at) / RFU FAM211A (11726209_a_at) / Fold change /veh FAM211A (11726209_a_at) / RFU RGS16 (11746705_a_at) / Fold change /veh RGS16 (11746705_a_at) / RFU VCAN (11755009_s_at) / Fold change /veh VCAN (11755009_s_at) / RFU RHOB (11743442_s_at) / Fold change /veh RHOB (11743442_s_at) / RFU RGS16 (11720943_a_at) / Fold change /veh RGS16 (11720943_a_at) / RFU RGS16 (11720944_at) / Fold change /veh RGS16 (11720944_at) / RFU, VPS4B / Fold change vs veh, VPS4B / RFU, CREB1 / Fold change vs veh, CREB1 / RFU, DNAJC13 / Fold change vs veh, DNAJC13 / RFU, GNAQ / Fold change vs veh, GNAQ / RFU, CDK5R1 / Fold change vs veh, CDK5R1 / RFU, ZRANB3 / Fold change vs veh, ZRANB3 / RFU, CUL4A / Fold change vs veh, CUL4A / RFU, CCNY / Fold change vs veh, CCNY / RFU, UFL1 / Fold change vs veh, UFL1 / RFU, COG3 / Fold change vs veh, COG3 / RFU, DIAPH2 / Fold change vs veh, DIAPH2 / RFU, SKA2 / Fold change vs veh, SKA2 / RFU, AFF3 / Fold change vs veh, AFF3 / RFU, LMF1 / Fold change vs veh, LMF1 / RFU, IPO11 / Fold change vs veh, IPO11 / RFU, DFFB / Fold change vs veh, DFFB / RFU, FOXP1 / Fold change vs veh, FOXP1 / RFU, CARD8 / Fold change vs veh, CARD8 / RFU, STRN3 / Fold change vs veh, STRN3 / RFU, ADK / Fold change vs veh, ADK / RFU, RASSF2 / Fold change vs veh, RASSF2 / RFU, WIPF1 / Fold change vs veh, WIPF1 / RFU, LARP1B / Fold change vs veh, LARP1B / RFU, RASA1 / Fold change vs veh, RASA1 / RFU, RB1 / Fold change vs veh, RB1 / RFU, PPFIA1 / Fold change vs veh, PPFIA1 / RFU, MAT2A / Fold change vs veh, MAT2A / RFU, CCT5 / Fold change vs veh, CCT5 / RFU, WDR92 / Fold change vs veh, WDR92 / RFU, CUX1 / Fold change vs veh, CUX1 / RFU, TTC7A / Fold change vs veh, TTC7A / RFU, TMEM135 / Fold change vs veh, TMEM135 / RFU, DEPTOR / Fold change vs veh, DEPTOR / RFU, CPM / Fold change vs veh, CPM / RFU, DNAJB6 / Fold change vs veh, DNAJB6 / RFU, CACNA2D3 / Fold change vs veh, CACNA2D3 / RFU, DTX4 / Fold change vs veh, DTX4 / RFU, TFCP2 / Fold change vs veh, TFCP2 / RFU, GMCL1 /// GMCL1P1 / Fold change vs veh, GMCL1 /// GMCL1P1 / RFU, AEBP2 / Fold change vs veh, AEBP2 / RFU, SNHG1 /// SNORD22 /// SNORD25 /// SNORD26 /// SNORD27 /// SNORD28 /// SNORD29 /// SNORD31 / Fold change vs veh, SNHG1 /// SNORD22 /// SNORD25 /// SNORD26 /// SNORD27 /// SNORD28 /// SNORD29 /// SNORD31 / Fold change (Aza/veh), C12orf56 (ProbeSet 11735607_a_at) / Fold change (ACY-1035/veh), C12orf56 (ProbeSet 11735607_a_at) / Fold change (Aza/veh), FGFR1OP (ProbeSet 11751329_s_at) / Fold change (ACY-1035/veh), FGFR1OP (ProbeSet 11751329_s_at) / Fold change (Aza/veh), VPS36 (ProbeSet 11739960_a_at) / Fold change (ACY-1035/veh), VPS36 (ProbeSet 11739960_a_at) / RFU SYPL1 (11715823_x_at) / Fold change /veh SYPL1 (11715823_x_at) / RFU IGFBP7 (11715501_s_at) / Fold change /veh IGFBP7 (11715501_s_at) / RFU REEP3 (11722064_at) / Fold change /veh REEP3 (11722064_at) / RFU IGLL1 (11728026_x_at) / Fold change /veh IGLL1 (11728026_x_at): dose or concentration left out as unconfirmed
Conditions: MV-4-11 cells, 48 hours

Nc1ncn([C@@H]2O[C@H](CO)[C@@H](O)[C@H]2O)c(=O)n1 [azacitidine]
Fold change /veh RNFT2 (11725882_a_at): 1.12
